In US20210213104A1, “GLUCAGON AND GLP-1 CO-AGONISTS FOR THE TREATMENT OF CHRONIC KIDNEY DISEASE AND DIABETIC KIDNEY DISEASE IN TYPE 2 DIABETES” (MEDIMMUNE LIMITED, priority 2020, published 2021):
Where “and” joins values, the source holds several entries; their conditions need not be identical. Equal entries are not always repeated.

Legend:
[1] = system: subjects with T2DM and renal impairment; experiment: Phase 2a: HbA1c blood test; assay type: in vivo, human; conditions: ITT; for HbA1c LS Mean Change / HbA1c Change from Baseline, Mean / HbA1c Difference in LS Mean Change (vs Placebo): Day 1 to Day 32; for HbA1c LS Mean Change: ANCOVA
Description: Cotadutide was titrated from 50 μg up to 300 μg and administered once daily by subcutaneous (SC) injection over 32 days.
Cotadutide was administered at 50 μg once daily for 4 days, followed by 100 μg daily for 7 days, 200 μg daily for 7 days, and 300 μg daily for 14 days (n=20). Placebo was administered one daily for 32 days (n=20). Cotadutide and placebo were administered in the morning. Dosing commenced following predose baseline vital signs, blood tests (including HbA1c), an electrocardiogram (ECG), body weight measurement, and bioimpedance spectroscopy (BIS). Subjects then returned for daily dosing or remained overnight locally until Day 5, and thereafter, had visits at weekly intervals until a maintenance dose of 300 μg was established. Thus, Cotadutide or placebo was administered at the study site by study personal for the first four doses and on site on Days 5, 12, 19, and 32. At all other times, subjects preformed dosing at home.
Blood samples were collected to evaluate blood glucose (fasting) and HbA1c levels.

[2] = system: subjects with T2DM and renal impairment; experiment: Phase 2a: anti-drug antibody (ADA) screening assay; assay type: in vivo, human
Description: Blood samples were collected to evaluate anti-drug antibody (ADA) response to Cotadutide. A screening assay in the form of a traditional ligand-binding “birding” assay using electrochemiluminescence was used to determine ADA-positive samples.
Development of ADA and titres (in any subjects testing positive) were assessed (As-treated population). No subjects tested positive for ADA at baseline. A total of 2 subjects (4.9%) were ADA positive post-baseline (both subjects [9.5%] in the Cotadutide dose group). […] 1 subject was ADA positive at Day 12 (titer ≤5) but negative at subsequent visits. One subject was ADA positive at Day 32 (titer=2560) and remained positive at the Day 60 follow-up visit (titer=160); at 6 months after their last visit; the antibody titer was 10, and therefore, no additional follow-up was deemed necessary for this subject.

SMILES: CCCCCCCCCCCCCCCC(=O)N[C@@H](CCC(=O)NCCCC[C@H](NC(=O)[C@H](CC(=O)O)NC(=O)[C@H](CO)NC(=O)[C@@H](NC(=O)[C@H](Cc1ccccc1)NC(=O)[C@@H](NC(=O)CNC(=O)[C@H](CCC(N)=O)NC(=O)[C@H](CO)NC(=O)[C@@H](N)Cc1c[nH]cn1)[C@@H](C)O)[C@@H](C)O)C(=O)N[C@@H](CO)C(=O)N[C@@H](CCC(=O)O)C(=O)N[C@@H](Cc1ccc(O)cc1)C(=O)N[C@@H](CC(C)C)C(=O)N[C@@H](CC(=O)O)C(=O)N[C@@H](CO)C(=O)N[C@@H](CCC(=O)O)C(=O)N[C@@H](CCCNC(=N)N)C(=O)N[C@@H](C)C(=O)N[C@@H](CCCNC(=N)N)C(=O)N[C@@H](CC(=O)O)C(=O)N[C@@H](Cc1ccccc1)C(=O)N[C@H](C(=O)N[C@@H](C)C(=O)N[C@@H](Cc1c[nH]c2ccccc12)C(=O)N[C@@H](CC(C)C)C(=O)N[C@@H](CCC(=O)O)C(=O)N[C@@H](C)C(=O)NCC(=O)NCC(=O)O)C(C)C)C(=O)O [Cotadutide]
- HbA1c LS Mean Change ([1]; Insulin Dose < 20 U/day): −0.66%
- HbA1c LS Mean Change ([1]; Insulin Dose ≥ 20 U/day): −0.57%
- HbA1c LS Mean Change ([1]; Total): −0.65% and −0.7%
- HbA1c LS Mean Change ([1]; Total, listed as MEDI0382): −0.65%
- HbA1c Change from Baseline, Mean ([1]; Insulin Dose < 20 U/day): −0.829%
- HbA1c Difference in LS Mean Change (vs Placebo) ([1]; Insulin Dose < 20 U/day): −0.59%
- HbA1c Difference in LS Mean Change (vs Placebo) ([1]; Insulin Dose ≥ 20 U/day): −0.55%
- HbA1c Change from Baseline, Mean ([1]; Total): −0.653%
- HbA1c Difference in LS Mean Change (vs Placebo) ([1]; Total): −0.66%
- Hemoglobin A1C, Day 32, Mean ([1]; Insulin Dose < 20 U/day): 6.943%
- Hemoglobin A1C, Day 32, Median ([1]; Insulin Dose < 20 U/day): 6.900%
- Hemoglobin A1C, Day 32, Mean ([1]; Insulin Dose ≥ 20 U/day): 7.392%
- Hemoglobin A1C, Day 32, Median ([1]; Insulin Dose ≥ 20 U/day): 7.300%
- Hemoglobin A1C, Day 32, Mean ([1]; Total): 7.226%
- Hemoglobin A1C, Day 32, Median ([1]; Total): 7.200%
- ADA titer, one subject ([2]; 6 months after last visit): 10
- subjects ADA positive post-baseline, number ([2]; As-treated population): 2 subjects
- subjects ADA positive post-baseline, percentage of dose group ([2]; As-treated population): 9.5%
- ADA titer, one subject ([2]; Day 12, negative at subsequent visits): ≤ 5
- ADA titer, one subject ([2]; Day 32): 2560
- ADA titer, one subject ([2]; Day 60 follow-up visit): 160
- treatment-boosted ADA ([2]; baseline titer boosted 4-fold or higher): No subjects
